Reference: patent US8748598B2, “Analogs of 3-O-acetyl-11-keto-beta-boswellic acid” (Laila Nutraceuticals, priority 2004, dated 2014)
Converted amounts (≈) assume the structure as drawn.

What was measured:
MCF-7 = assay: MTT cell proliferation assay, MCF-7; type: cell-based, human; conditions: Table 4; for Percentage Inhibition of cell proliferation MCF-7 / inhibition at 10 µg/mL: 10 μg/ml; for inhibition at 10 µg/mL: read-out: Percentage Inhibition of cell proliferation MCF-7
Protocol: (§1) MTT [3-(4,5-dimethylthiazol-2-yl)-2,5-diphenyltetrazolium bromide] incorporation based cell proliferation assay was performed as described previously (Reference). The cytotoxic efficacy of some analogs was evaluated in different cell lines by MTT cell proliferation assay kit (Roche Applied Sciences, Germany). The assay was carried out according to the instruction provided by the vendor. Briefly, in brief, equal numbers of cells was plated in 96-well flat-bottomed plates in 100 μl of medium and were exposed to different analogs selected from 1 to 63 at various concentrations up to 10 μg/ml for a period of three days. Vehicle control culture wells received only a maximum of 0.5% DMSO. Thereafter, 0.5 mg/ml of MTT reagent was added to each well and the microplate was incubated further for 4 h at 37° C. in presence of 5% CO2. Finally, the cells were solubilized by adding solubilizing solution and allowed to incubate at 37° C. overnight. After complete solubilization of the formazan crystals the absorbance was read at 540 nm in a microplate reader (BioRad, USA). The results (mean OD±SD) obtained from quadruplicate wells were used in calculation to determine the inhibition of cell proliferation (50% of inhibitory concentration, IC50) of the test compounds.
(§2) The cytotoxic properties of some analogs were evaluated by MTT incorporation assay. The methodology of the assay procedure was the same as mentioned in example 41.

MDA-MB-231 = assay: MTT cell proliferation assay, MDA-MB-231; type: cell-based, human; conditions: Table 4; for inhibition at 10 µg/mL / IC50: Homo sapiens, MDA-MB-231; for inhibition at 10 µg/mL: read-out: Percentage Inhibition of cell proliferation MDA-MB-231
Protocol: as §1, §2

potato 5-lipoxygenase = assay: 5-Lipoxygenase enzyme inhibitory activity; type: biochemical
Protocol: 5-Lipoxygenase enzyme inhibitory activity was measured using the method of Schewe et al. (Adv Enzymol, Vol 58, 191-272, 1986), modified by Reddanna et. al., (Methods of Enzymology, Vol 187, 268-277, 1990). The assay mixture contained 80 μM linoleic acid and sufficient amount of potato 5-lipoxygenase in 50 mM phosphate buffer (pH 6.3). The reaction was initiated by the addition of enzyme buffer mix to linoleic acid and the enzyme activity was monitored as the increase in absorbance at 234 nm. The reaction was monitored for 120 sec and the inhibitory potential of the test substances (29, 31, 33, 34, 35, 36, 39, 40, 43, 44, 46, 47, 48, 49, 50, 54, 57, 59, 62 & 63) was measured by incubating various concentrations of test substances two minutes before the addition of linoleic acid. All assays were performed three times. Percentage inhibition was calculated by comparing the slope of the curve obtained for test substances with that of the control.

| Compound | % inhibition at 10 μg/ml (potato 5-lipoxygenase) | inhibition at 10 µg/mL (MCF-7; Homo sapiens, MCF7) | inhibition at 10 µg/mL (MDA-MB-231; 10 μg/ml) | further results |
| --- | --- | --- | --- | --- |
| CC1CCC2(C)CCC3(C)C(=CC(=O)C4C5(C)CCC(OC(=O)CCC(=O)O)C(C)(C(=O)O)C5CCC43C)C2C1C (centres unmarked) [Analog 4] |  |  |  | Percentage Inhibition of cell proliferation MCF-7 (MCF-7): 26.6% at 10 μg/ml; Percentage Inhibition of cell proliferation MDA-MB-231 (MDA-MB-231; 10 μg/ml): 40.7% at 10 μg/ml |
| COC(=O)[C@]1(C)C2CC[C@]3(C)C(C(=O)C=C4C5[C@@H](C)[C@H](C)CC[C@]5(C)CC[C@]43C)[C@@]2(C)CC[C@H]1S (some centres unmarked) [Analog 15] |  | 21.6% | 37.5% |  |
| CC(=O)OC1CC[C@@]2(C)C(CC[C@]3(C)C2C(=O)C=C2C4[C@@H](C)[C@H](C)CC[C@]4(C)CC[C@]23C)[C@@]1(C)C(=O)OCCN(C)C (some centres unmarked) [Analog 18] |  |  |  | Percentage Inhibition of cell proliferation MCF-7 (MCF-7): 5.97 at 10 μg/ml % |
| CC(=O)O[C@@H]1CC[C@@]2(C)C(CC[C@]3(C)C2C(=O)C=C2C4[C@@H](C)[C@H](C)CC[C@]4(C)CC[C@]23C)[C@@]1(C)C(=O)N1CCOCC1 (some centres unmarked) [Analog 37] |  |  | 23% |  |
| C[C@@H]1CC[C@]2(C)CC[C@]3(C)C(=CC(=O)C4[C@@]5(C)CC[C@@H](O)[C@](C)(C(=O)N6CCN(CCO)CC6)C5CC[C@]43C)C2[C@H]1C (some centres unmarked) [Analog 38] |  | 2.73% | 20% |  |
| CC(=O)O[C@@H]1CC[C@@]2(C)C(CC[C@]3(C)C2C(=O)C=C2C4[C@@H](C)[C@H](C)CC[C@]4(C)CC[C@]23C)[C@@]1(C)C(=O)NC1Cc2ccccc2C1 (some centres unmarked) [Analog 41] |  | 3.74% | 23% |  |
| CC(=O)O[C@@H]1CC[C@@]2(C)C(CC[C@]3(C)C2C(=O)C=C2C4[C@@H](C)[C@H](C)CC[C@]4(C)CC[C@]23C)[C@@]1(C)C(=O)Nc1ccccc1 (some centres unmarked) [Analog 42] |  | 2.33% | 6% |  |
| CC(=O)O[C@@H]1CC[C@@]2(C)C(CC[C@]3(C)C2C(=O)C=C2C4[C@@H](C)[C@H](C)CC[C@]4(C)CC[C@]23C)[C@@]1(C)C(=O)N(C)CCO (some centres unmarked) [Analog 45] |  |  |  | IC50 (MCF-7; Homo sapiens, MCF7): 11.9 µg/mL (≈ 20.8 µM); IC50 (MDA-MB-231): 12 µg/mL (≈ 21 µM) |
| CC(=O)O[C@@H]1CC[C@@]2(C)C(CC[C@]3(C)C2CC=C2C4[C@@H](C)[C@H](C)CC[C@]4(C)CC[C@]23C)[C@@]1(C)C(=O)NCCN (some centres unmarked) [Analog 51] |  |  |  | IC50 values MCF-7 (MCF-7): IC50 at 9.27 μg/ml; IC50 values MDA-MB-231 (MDA-MB-231): IC50 at 10.5 μg/ml |
| COC(=O)CCC(NC(=O)[C@]1(C)C2CC[C@]3(C)C(C(=O)C=C4C5[C@@H](C)[C@H](C)CC[C@]5(C)CC[C@]43C)[C@@]2(C)CC[C@H]1OC(C)=O)C(=O)OC (some centres unmarked) [Analog 56] |  | 20% | 47% |  |
| CC(=O)O[C@@H]1CC[C@]2(C)C3=C(Cl)C=C4C5[C@@H](C)[C@H](C)CC[C@]5(C)CC[C@@]4(C)[C@]3(C)CCC2[C@@]1(C)C(=O)NCCN (some centres unmarked) [Analog 61] |  | 41% |  | IC50 (MDA-MB-231): 8.55 µg/mL (≈ 14.9 µM) |
| CC(=O)O[C@@H]1CC[C@]2(C)C3=C(Cl)C=C4C5[C@@H](C)[C@H](C)CC[C@]5(C)CC[C@@]4(C)[C@]3(C)CCC2[C@@]1(C)C(=O)N1CCNCC1 (some centres unmarked) [Analog 63] | 36.20% |  |  | % inhibition at 25 μg/ml (potato 5-lipoxygenase): 57.86% |

Further lines, with some results ahead:

| % inhibition at 10 μg/ml (potato 5-lipoxygenase) | Compound | inhibition at 10 µg/mL (MCF-7; Homo sapiens, MCF7) | inhibition at 10 µg/mL (MDA-MB-231; 10 μg/ml) | further results |
| --- | --- | --- | --- | --- |
| 32.11% | CC(=O)O[C@@H]1CC[C@@]2(C)C(CC[C@]3(C)C2C(=O)C=C2C4[C@@H](C)[C@H](C)CC[C@]4(C)CC[C@]23C)[C@@]1(C)C(=O)N1CCN(CCO)CC1 (some centres unmarked) [Analog 39] |  |  | % inhibition at 25 μg/ml (potato 5-lipoxygenase): 48.69% |
| 35.69% | CC(=O)O[C@@H]1CC[C@@]2(C)C(CC[C@]3(C)C2CC=C2C4[C@@H](C)[C@H](C)CC[C@]4(C)CC[C@]23C)[C@@]1(C)C(=O)N1CCNCC1 (some centres unmarked) [Analog 54] |  |  | % inhibition at 25 μg/ml (potato 5-lipoxygenase): 64.24% |
| 21.46% | C[C@@H]1CC[C@]2(C)CC[C@]3(C)C(=CC(Cl)=C4[C@@]5(C)CC[C@@H](O)[C@](C)(C(=O)O)C5CC[C@]43C)C2[C@H]1C (some centres unmarked) [Analog 59] |  |  | % inhibition at 25 μg/ml (potato 5-lipoxygenase): 39.24% |
| 36.26% | CC(=O)O[C@@H]1CC[C@]2(C)C3=C(Cl)C=C4C5[C@@H](C)[C@H](C)CC[C@]5(C)CC[C@@]4(C)[C@]3(C)CCC2[C@@]1(C)C(=O)NN (some centres unmarked) [Analog 62] |  |  |  |
